Source: patent publication US20240327412A1, “FACTOR XIIA INHIBITORS” (KALVISTA PHARMACEUTICALS LIMITED, priority 2021, published 2024)

What was measured:
Human Factor XIIa = biological target: T1, Human Factor XIIa (Homo sapiens, UniProt P00748); experiment: Determination of FXIIa inhibition (fluorogenic substrate H-DPro-Phe-Arg-AFC, IC50 assay); assay type: biochemical; details: substrate at Km concentration, 25° C.; category scale; read-out: Human FXII IC50 (nm)
T1 construct: Proteolytic cleavage of FXII to heavy and light chains of FXIIa dramatically increases catalytic activity; purchased Enzyme Research Laboratories
T1 sequence (P00748 373-615 limits assumed): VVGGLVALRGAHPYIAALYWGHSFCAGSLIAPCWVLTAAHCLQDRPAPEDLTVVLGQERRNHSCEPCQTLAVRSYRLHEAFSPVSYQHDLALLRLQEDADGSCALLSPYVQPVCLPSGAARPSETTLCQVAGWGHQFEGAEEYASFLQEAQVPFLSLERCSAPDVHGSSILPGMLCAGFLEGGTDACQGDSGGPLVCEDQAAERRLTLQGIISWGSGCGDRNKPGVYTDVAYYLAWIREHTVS
T1 sequence (P00748 20-372 partner limits assumed): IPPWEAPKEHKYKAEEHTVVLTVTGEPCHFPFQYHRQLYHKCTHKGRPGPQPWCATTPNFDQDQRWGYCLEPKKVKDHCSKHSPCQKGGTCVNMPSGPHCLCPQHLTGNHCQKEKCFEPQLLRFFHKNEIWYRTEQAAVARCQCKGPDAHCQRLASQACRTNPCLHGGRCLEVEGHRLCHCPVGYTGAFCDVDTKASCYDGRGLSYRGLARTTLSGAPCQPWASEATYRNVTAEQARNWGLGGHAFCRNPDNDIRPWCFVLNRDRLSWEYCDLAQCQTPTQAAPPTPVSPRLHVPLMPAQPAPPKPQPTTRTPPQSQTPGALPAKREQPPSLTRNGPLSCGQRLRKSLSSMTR
Procedure, shortened: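 At substrate Km and 25° C., the rate of AFC release from H-DPro-Phe-Arg-AFC by human Factor XIIa was followed for 5 min across compound concentrations. Inhibition was derived as percent of uninhibited rate, giving IC50.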

Plasma Kallikrein = biological target: T2, Plasma Kallikrein (Homo sapiens, UniProt P03952); experiment: Related protease inhibition: Plasma Kallikrein (fluorogenic substrate at Km); assay type: biochemical; details: class symbols per Table 18, read-out: IC50 (human PKal)
T2 construct: FXIIa converts plasma prekallikrein (PK) to plasma kallikrein (PKa)
Protocol: In vitro inhibition of related proteases was determined using an IC50 assay based on standard literature methods (see e.g. Shori et al., Biochem. Pharmacol., 1992, 43, 1209; Bouckaert et al., European Journal of Medicinal Chemistry 110 (2016) 181). Human serine protease enzyme Plasma Kallikrein, KLK1, FXa, Plasmin, Thrombin and Trypsin were assayed for enzymatic activity using an appropriate fluorogenic substrate at Km concentration, FXIa at fixed substrate concentration of 100 μM and various concentrations of the test compound. Protease activity was measured by monitoring the accumulation of liberated fluorescence from the substrate over 5 min at 25° C. The linear rate of fluorescence increase per minute was expressed as percentage (%) activity. IC50 values were calculated as the concentration of inhibitor giving 50% inhibition of the uninhibited enzyme activity (100%).

T2 sequence (P03952 391-638 limits assumed): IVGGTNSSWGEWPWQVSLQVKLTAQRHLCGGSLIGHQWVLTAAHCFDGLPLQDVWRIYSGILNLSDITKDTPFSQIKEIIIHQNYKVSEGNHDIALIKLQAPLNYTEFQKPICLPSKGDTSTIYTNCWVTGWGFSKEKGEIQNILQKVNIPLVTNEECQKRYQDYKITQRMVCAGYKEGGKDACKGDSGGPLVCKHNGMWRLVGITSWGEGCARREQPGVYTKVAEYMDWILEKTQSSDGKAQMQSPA
T2 sequence (P03952 20-390 partner limits assumed): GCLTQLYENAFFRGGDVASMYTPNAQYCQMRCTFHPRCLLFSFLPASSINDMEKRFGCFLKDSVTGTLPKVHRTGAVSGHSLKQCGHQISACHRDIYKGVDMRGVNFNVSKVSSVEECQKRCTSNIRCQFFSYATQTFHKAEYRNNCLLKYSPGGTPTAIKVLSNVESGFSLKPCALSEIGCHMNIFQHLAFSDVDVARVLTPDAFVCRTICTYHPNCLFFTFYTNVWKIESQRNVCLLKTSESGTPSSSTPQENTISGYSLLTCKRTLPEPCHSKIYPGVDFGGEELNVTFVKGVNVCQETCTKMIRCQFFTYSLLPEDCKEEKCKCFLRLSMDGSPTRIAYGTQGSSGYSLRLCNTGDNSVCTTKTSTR

Row | IC50 (Human Factor XIIa) [µM] | IC50 (Plasma Kallikrein) [µM] | Structure (SMILES)
1 | 0.3 to 1 | > 40 | Nc1nccc2c(NCC34CC(COC5CCn6ccnc6C5)(C3)C4)cccc12 (single isomer, unassigned) [Example 1002.2, (R*)-N5-((3-(((5,6,7,8-tetrahydroimidazo[1,2-a]pyridin-7-yl)oxy)methyl)bicyclo[1.1.1]pentan-1-yl)methyl)isoquinoline-1,5-diamine]
2 | 3 to 10 | > 40 | N#Cc1cnc(OCC23CC(CNc4cccc5c(N)nccc45)(CO2)C3)nc1 [Example 2208, 2-((4-(((1-aminoisoquinolin-5-yl)amino)methyl)-2-oxabicyclo[2.1.1]hexan-1-yl)methoxy)pyrimidine-5-carbonitrile]
3 | 0.1 to 0.3 | > 40 | Nc1nccc2c(NCC34CC(COc5ccc6nnc(C(F)F)n6n5)(CCO3)C4)cccc12 [Example 10910, N5-((5-(((3-(difluoromethyl)-[1,2,4]triazolo[4,3-b]pyridazin-6-yl)oxy)methyl)-2-oxabicyclo[3.1.1]heptan-1-yl)methyl)isoquinoline-1,5-diamine]
4 | 10 to 40 | > 40 | Nc1nccc2c(N3CC4(CC(COc5ccc6nccn6c5)C4)C3)cccc12 [Example 8808, 5-(6-((imidazo[1,2-a]pyridin-6-yloxy)methyl)-2-azaspiro[3.3]heptan-2-yl)isoquinolin-1-amine]
5 | 3 to 10 | > 40 | Cn1cccc(OCC23CCOC(CNc4cccc5c(N)nccc45)(C2)C3)c1=O [Example 10911, 3-((1-(((1-aminoisoquinolin-5-yl)amino)methyl)-2-oxabicyclo[3.1.1]heptan-5-yl)methoxy)-1-methylpyridin-2(1H)-one]
6 | 0.3 to 1 | > 40 | Clc1cc2c(NCC34CC(COC5CCn6ccnc6C5)(C3)C4)ccnc2[nH]1 (stereo not shown) [Example 1130, 2-Chloro-N-[[3-(5,6,7,8-tetrahydroimidazo[1,2-a]pyridin-7-yloxymethyl)-1-bicyclo[1.1.1]pentanyl]methyl]-1H-pyrrolo[2,3-b]pyridin-4-amine]
7 | 1 to 3 | > 40 | Nc1nccc2c(N3CCC4(CC(OCc5ccn6ccnc6c5)C4)C3)cccc12 (stereo not drawn) [Example 8805, 5-(trans*-2-(imidazo[1,2-a]pyridin-7-ylmethoxy)-6-azaspiro[3.4]octan-6-yl)isoquinolin-1-amine]
8 | 3 to 10 | > 40 | Nc1nccc2c(NCC34CC(Cn5ccn6ccc(=O)cc56)(C3)C4)cccc12 [Example 1127, 1-((3-(((1-aminoisoquinolin-5-yl)amino)methyl)bicyclo[1.1.1]pentan-1-yl)methyl)imidazo[1,2-a]pyridin-7(1H)-one]
9 | 1 to 3 | > 40 | Clc1cc2c(NCC34CC(COc5ccc6nccn6c5)(CCO3)C4)ccnc2[nH]1 [Example 10909, 2-Chloro-N-[[5-(imidazo[1,2-a]pyridin-6-yloxymethyl)-2-oxabicyclo[3.1.1]heptan-1-yl]methyl]-1H-pyrrolo[2,3-b]pyridin-4-amine]
10 | 10 to 40 | > 40 | Nc1nccc2c(N3CC4(CCC4OCc4ccn5ccnc5c4)C3)cccc12 (stereo not shown) [Example 9001, 5-(5-(imidazo[1,2-a]pyridin-7-ylmethoxy)-2-azaspiro[3.3]heptan-2-yl)isoquinolin-1-amine]
11 | 10 to 40 | > 40 | Nc1nccc2c(N3CC4(CCC4OCc4ccn5ccnc5c4)C3)cccc12 (single isomer, unassigned) [Example 9003, (S*)-5-(5-(imidazo[1,2-a]pyridin-7-ylmethoxy)-2-azaspiro[3.3]heptan-2-yl)isoquinolin-1-amine]
12 | 0.3 to 1 | > 40 | Nc1nccc2c(NCC34CC(COC5CCc6nccn6C5)(CO3)C4)cccc12 (stereo not shown) [Example 6610, N5-((4-(((5,6,7,8-tetrahydroimidazo[1,2-a]pyridin-6-yl)oxy)methyl)-2-oxabicyclo[2.1.1]hexan-1-yl)methyl)isoquinoline-1,5-diamine]
13 | 10 to 40 | > 40 | Nc1nccc2c(NCC34CC(COc5ccc6cn[nH]c6c5)(C3)C4)cccc12 [Example 1125, N5-((3-(((1H-indazol-6-yl)oxy)methyl)bicyclo[1.1.1]pentan-1-yl)methyl)isoquinoline-1,5-diamine]
14 | 10 to 40 | > 40 | Nc1nccc2c(NC34CC(COc5ccc6nccn6c5)(C3)C4)cccc12 [Example 1131, N5-(3-((imidazo[1,2-a]pyridin-6-yloxy)methyl)bicyclo[1.1.1]pentan-1-yl)isoquinoline-1,5-diamine]
15 | 0.3 to 1 | > 40 | Nc1nccc2c(NCC34CC(COC5CCc6nccn6C5)(CCO3)C4)cccc12 (stereo not shown) [Example 10908, N5-((5-(((5,6,7,8-tetrahydroimidazo[1,2-a]pyridin-6-yl)oxy)methyl)-2-oxabicyclo[3.1.1]heptan-1-yl)methyl)isoquinoline-1,5-diamine]
16 | 0.3 to 1 | > 40 | Nc1nccc2c(NCC34CC(COc5cccn6ccnc56)(C3)C4)cccc12 [Example 1018, 5-N-[[3-(Imidazo[1,2-a]pyridin-8-yloxymethyl)-1-bicyclo[1.1.1]pentanyl]methyl]isoquinoline-1,5-diamine]
17 | 3 to 10 | > 40 | Nc1nccc2c(NCC34CC(COc5ccccn5)(CCO3)C4)cccc12 [Example 10914, N5-((5-((pyridin-2-yloxy)methyl)-2-oxabicyclo[3.1.1]heptan-1-yl)methyl)isoquinoline-1,5-diamine]
18 | 10 to 40 | > 40 | Nc1nccc2c(NCC34CC(Cn5ccccc5=O)(CCO3)C4)cccc12 [Example 10915, 1-((1-(((1-aminoisoquinolin-5-yl)amino)methyl)-2-oxabicyclo[3.1.1]heptan-5-yl)methyl)pyridin-2(1H)-one]
19 | 1 to 3 | > 40 | Clc1cc2c(NCC34CC(COc5ccn6ccnc6c5)(CO3)C4)ccnc2[nH]1 [Example 6606, 2-chloro-N-((4-((imidazo[1,2-a]pyridin-7-yloxy)methyl)-2-oxabicyclo[2.1.1]hexan-1-yl)methyl)-1H-pyrrolo[2,3-b]pyridin-4-amine]
20 | 1 to 3 | > 40 | Nc1nccc2c(CCC34CC(COc5ccn6ccnc6c5)(C3)C4)cccc12 [Example 1014, 5-[2-[3-(Imidazo[1,2-a]pyridin-7-yloxymethyl)-1-bicyclo[1.1.1]pentanyl]ethyl]isoquinolin-1-amine]
21 | 1 to 3 | > 40 | Nc1nccc2c(NCC34COC(COc5ccn6c(C(F)(F)F)nnc6c5)(C3)C4)cccc12 [Example 2206, N5-((1-(((3-(trifluoromethyl)-[1,2,4]triazolo[4,3-a]pyridin-7-yl)oxy)methyl)-2-oxabicyclo[2.1.1]hexan-4-yl)methyl)isoquinoline-1,5-diamine]
22 | 1 to 3 | > 40 | Nc1nccc2c(N3CCC4(CC(OCc5ccn6ccnc6c5)C4)C3)cccc12 (stereo not drawn) [Example 8804, 5-(cis*-2-(imidazo[1,2-a]pyridin-7-ylmethoxy)-6-azaspiro[3.4]octan-6-yl)isoquinolin-1-amine]
23 | 10 to 40 | > 40 | Nc1nccc2c(N3CC4(CC(OCc5ccn6ccnc6c5)C4)C3)cccc12 [Example 8801, 5-(6-(imidazo[1,2-a]pyridin-7-ylmethoxy)-2-azaspiro[3.3]heptan-2-yl)isoquinolin-1-amine]
